In patent publication US20110112100A1, “Hepatitis C Virus Inhibitors” (priority 2009, published 2011):
Counter-ions that a name gives are not always drawn. Like-named read-outs stand apart in the source and are kept apart here.

How the values were obtained:
1a-H77 replicon cells = assay: HCV 1a replicon inhibitory activity (Renilla luciferase); type: cell-based, hepatitis C virus; conditions: read-out: IC50 value (95% Confidence Intervals) pM Replicon 1A assay
Protocol: (§1) Test compounds were solubilised to 4 mM in 100% DMSO. Dilutions were made to the desired starting concentration in 100% DMSO and then 1 in 3 dilutions made, again in 100% DMSO. 0.5 μl of each sample was added to 384-well assay plates. White Lumitrac (Greiner) plates were used for the 1a and 1b replicon assays and black, clear bottomed (Greiner) plates were used for the WST-1 cytotoxity assay.
1a-H77 replicon cells (licensed from Apath LLC) were resuspended to a concentration of 1.4×10^5 cells/ml by addition of pre-warmed assay medium (Dulbecco's Modified Eagle's Medium (DMEM)+10% fetal calf serum (FCS)). 50 μl of this suspension was added to each well of a 384-well assay plate (Lumitrac, Greiner), already containing 0.5 μl of test compound.
All plates were covered with gas permeable seals and incubated at 37° C., 5% CO2 for 48 hours. After 48 hours, the assay plate was removed from the incubator and left to cool to room temperature for 15 to 30 mins. Medium was removed from the wells and 5 μl 1× lysis buffer (from Promega's Renilla Luciferase assay kit, E2820) was added to each well. The plate was incubated at room temperature for 15 mins then 15 μl 1×Assay Substrate (from the same kit) was added to each well. Luminescence was read immediately using an EnVision (Perkin Elmer) plate reader. The half maximal effective concentration (1050) values were calculated by constructing log concentration-response curves for each compound.

1b (con1) replicon cells = assay: HCV 1b replicon inhibitory activity (luciferase, Britelite Plus); type: cell-based, hepatitis C virus; conditions: read-out: IC50 value (95% Confidence Intervals) pM Replicon 1B assay
Protocol: as §1
1b (con1) replicon cells (pFK1389lucubineo/NS3-3′/ET/9B, licensed from Ralf Bartenschlager, University of Heidelberg) were resuspended to a concentration of 1.4×10^5 cells/ml by addition of pre-warmed medium (DMEM+10% FCS). 50 μl of this suspension was added to each well of a 384-well assay plate (Lumitrac, Greiner) already containing 0.5 μl of test compound.
All plates were covered with gas permeable seals and incubated at 37° C., 5% CO2 for 48 hours. After 48 hours, the plate was removed from the incubator and left to cool to room temperature for 15-30 mins. 35 ul of reconstituted Lyophilised Britelite Plus Substrate (PerkinElmer, 6016767) to medium was added to each well. Luminescence was read after 1 min but before 15 mins on an EnVision (Perkin Elmer) plate reader. The half maximal effective concentration (1050) values were calculated by constructing log concentration-response curves for each compound.

[1] = Hepatitis C virus, geometric mean, 95% confidence intervals in parentheses, 48 hours, medium with 10% FCS
[2] = geometric mean, 95% confidence intervals in parentheses, 48 hours, medium with 10% FCS

| SMILES | IC50 (1a-H77 replicon cells; [1]) | IC50 (1b (con1) replicon cells; [1]) | IC50 (1a-H77 replicon cells; Hepatitis C virus, 48 h) | IC50 (1b (con1) replicon cells; Hepatitis C virus, 48 h) | other results |
| --- | --- | --- | --- | --- | --- |
| COC(=O)N[C@H](C(=O)N1CCC[C@H]1c1nc(-c2cnc(-c3cnc4cc(-c5cnc([C@@H]6CCCN6C(=O)[C@@H](NC(=O)OC)C(C)C)[nH]5)ccc4n3)nc2)c[nH]1)C(C)C [Example 21, Methyl {(2S)-1-[(2S)-2-{5-[2-(5-{2-[(2S)-1-{(2S)-2-[(methoxycarbonyl)amino]-3-methylbutanoyl}pyrrolidin-2-yl]-1H-imidazol-4-yl}pyrimidin-2-yl)quinoxalin-6-yl]-1H-imidazol-2-yl}pyrrolidin-1-yl]-3-methyl-1-oxobutan-2-yl}carbamate] | 671 pM | 222 pM | – | – | – |
| COC(=O)N[C@H](C(=O)N1CCC[C@H]1c1nc(-c2cnc(-c3cc4ccc(-c5cnc([C@@H]6CCCN6C(=O)[C@@H](NC(=O)OC)C(C)C)[nH]5)cc4cn3)nc2)c[nH]1)C(C)C [Example 22, Methyl {(2S)-1-[(2S)-2-{4-[2-(7-{2-[(2S)-1-{(2S)-2-[(methoxycarbonyl)amino]-3-methylbutanoyl}pyrrolidin-2-yl]-1H-imidazol-5-yl}isoquinolin-3-yl)pyrimidin-5-yl]-1H-imidazol-2-yl}pyrrolidin-1-yl]-3-methyl-1-oxobutan-2-yl}carbamate] | 2190 pM | 152 pM | – | – | – |
| COC(=O)N[C@H](C(=O)N1CCC[C@H]1c1ncc(-c2ccc3cc(-c4cnc(-c5cnc([C@@H]6CCCN6C(=O)[C@@H](NC(=O)OC)C(C)C)[nH]5)cn4)ccc3c2)[nH]1)C(C)C [Example 24, Methyl {(2S)-1-[(2S)-2-{5-[6-(5-{2-[(2S)-1-{(2S)-2-[(methoxycarbonyl)amino]-3-methylbutanoyl}pyrrolidin-2-yl]-1H-imidazol-4-yl}pyrazin-2-yl)naphthalen-2-yl]-1H-imidazol-2-yl}pyrrolidin-1-yl]-3-methyl-1-oxobutan-2-yl}carbamate] | 19900 pM | 2010 pM | – | – | – |
| CC[C@H](NC(=O)OC)C(=O)N1CCC[C@H]1c1ncc(-c2ccc3cc(-c4ccc(-c5cnc([C@@H]6CCCN6C(=O)[C@@H](NC(=O)OC)C(C)C)[nH]5)cc4)ccc3c2)[nH]1 [Example 26, Methyl {(2S)-1-[(2S)-2-{5-[4-(6-{2-[(2S)-1-{(2S)-2-[(methoxycarbonyl)amino]butanoyl}pyrrolidin-2-yl]-1H-imidazol-5-yl}naphthalen-2-yl)phenyl]-1H-imidazol-2-yl}pyrrolidin-1-yl]-3-methyl-1-oxobutan-2-yl}carbamate] | 64.1 pM | 1.92 pM | – | – | – |
| COC(=O)N[C@H](C(=O)N1CCC[C@H]1c1nc(-c2ccc(-c3cnc4cc(-c5cnc([C@@H]6CCCN6C(=O)CNC(=O)CC(C)C)[nH]5)ccc4n3)cc2)c[nH]1)C(C)C [Example 33, Methyl {(2S)-3-methyl-1-[(2S)-2-(4-{4-[6-(2-{(2S)-1-[N-(3-methylbutanoyl)glycyl]pyrrolidin-2-yl}-1H-imidazol-5-yl)quinoxazolin-2-yl]phenyl}-1H-imidazol-2-yl}pyrrolidin-1-yl]-1-oxobutan-2-yl} carbamate trifluoroacetic acid salt] | – | – | – | – | IC50 (1a-H77 replicon cells; [2]): 2590 pM; IC50 (1b (con1) replicon cells; [2]): 32.2 pM |
| COC(=O)N[C@H](C(=O)N1CCC[C@H]1c1nc(-c2ccc(-c3cnc4cc(-c5cnc([C@@H]6CCCN6C(=O)[C@H](CCC(N)=O)NC(C)=O)[nH]5)ccc4n3)cc2)c[nH]1)C(C)C [Example 34, Methyl {(2S)-1-[(2S)-2-{4-[4-(6-[2-[(2S)-1-(N^2-acetyl-L-glutaminyl)pyrrolidin-2-yl]-1H-imidazol-5-yl}quinoxalin-2-yl)phenyl]-1H-imidazol-2-yl}pyrrolidin-1-yl]-3-methyl-1-oxobutan-2-yl}carbamate trifluoroacetic acid salt] | – | – | 5930 pM | 1430 pM | – |
| COC(=O)N[C@H](C(=O)N1CCC[C@H]1c1nc(-c2ccc(-c3cnc4cc(-c5cnc([C@@H]6CCCN6C(=O)CNC(C)=O)[nH]5)ccc4n3)cc2)c[nH]1)C(C)C [Example 35, Methyl {(2S)-1-[(2S)-2-{4-[4-(6-{2-[(2S)-1-(N-acetylglycyl)pyrrolidin-2-yl]-1H-imidazol-5-yl}quinoxalin-2-yl)phenyl]-1H-imidazol-2-yl}pyrrolidin-1-yl]-3-methyl-1-oxobutan-2-yl}carbamate trifluoroacetic acid salt] | – | – | 2300 pM | 254 pM | – |
| COC(=O)N[C@H](C(=O)N1CCC[C@H]1c1nc(-c2ccc(-c3cnc4cc(-c5cnc([C@@H]6CCCN6C(=O)CNC(=O)CNC(C)=O)[nH]5)ccc4n3)cc2)c[nH]1)C(C)C [Example 36, Methyl {(2S)-1-[(2S)-2-{4-[4-(6-{2-[(2S)-1-(N-acetylglycylglycyl)pyrrolidin-2-yl]-1H-imidazol-5-yl}quinoxalin-2-yl)phenyl]-1H-imidazol-2-yl}pyrrolidin-1-yl]-3-methyl-1-oxobutan-2-yl}carbamate trifluoroacetic acid salt] | – | – | 29800 pM | 1740 pM | – |
| CC[C@@H](NC(C)=O)C(=O)N1CCC[C@H]1c1ncc(-c2ccc3nc(-c4ccc(-c5c[nH]c([C@@H]6CCCN6C(=O)[C@@H](NC(=O)OC)C(C)C)n5)cc4)cnc3c2)[nH]1 [Example 38, Methyl {(2S)-1-[(2S)-2-(4-{4-[6-(2-{(2S)-1-[(2R)-2-(acetylamino)butanoyl]pyrrolidin-2-yl}-1H-imidazol-5-yl)quinoxalin-2-yl]phenyl}-1H-imidazol-2-yl)pyrrolidin-1-yl]-3-methyl-1-oxobutan-2-yl} carbamate trifluoroacetic acid salt] | – | – | – | – | IC50 (1a-H77 replicon cells; [2]): 1500 pM; IC50 (1b (con1) replicon cells; [2]): 71.9 pM |
| CC[C@H](NC(C)=O)C(=O)N1CCC[C@H]1c1ncc(-c2ccc3nc(-c4ccc(-c5c[nH]c([C@@H]6CCCN6C(=O)[C@@H](NC(=O)OC)C(C)C)n5)cc4)cnc3c2)[nH]1 [Example 39, Methyl {(2S)-1-[(2S)-2-(4-{4-[6-(2-{(2S)-1-[(2S)-2-(acetylamino)butanoyl]pyrrolidin-2-yl}-1H-imidazol-5-yl)quinoxalin-2-yl]phenyl}-1H-imidazol-2-yl)pyrrolidin-1-yl]-3-methyl-1-oxobutan-2-yl}carbamate trifluoroacetic acid salt] | – | – | 1240 pM | 48.1 pM | – |
| COC(=O)N[C@H](C(=O)N1CCC[C@H]1c1nc(-c2ccc(-c3cnc4cc(-c5cnc([C@@H]6CCCN6C(=O)[C@@H](NC(C)=O)[C@@H](C)O)[nH]5)ccc4n3)cc2)c[nH]1)C(C)C [Example 40, Methyl {(2S)-1-[(2S)-2-{4-[4-(6-{2-[(2S)-1-(N-acetyl-L-threonyl)pyrroldiin-2-yl]-1H-imidazol-5-yl}quinoxalin-2-yl)phenyl]-1H-imidazol-2-yl}pyrrolidin-1-yl]-3-methyl-1-oxobutan-2-yl}carbamate trifluoroacetic acid salt] | – | – | – | – | IC50 (1a-H77 replicon cells; [2]): 353 pM; IC50 (1b (con1) replicon cells; [2]): 55.8 pM |
| COC(=O)N[C@H](C(=O)N1CCC[C@H]1c1nc(-c2ccc(-c3cnc4cc(-c5cnc([C@@H]6CCCN6C(=O)CNC(=O)c6cnc(C)cn6)[nH]5)ccc4n3)cc2)c[nH]1)C(C)C [Example 41, Methyl {(2S)-3-methyl-1-[(2S)-2-{4-[4-(6-{2-[(2S)-1-{N-[(5-methylpyrazin-2-yl)carbonyl]glycyl}pyrrolidin-2-yl]-1H-imidazol-5-yl}quinoxalin-2-yl)phenyl]-1H-imidazol-2-yl}pyrrolidin-1-yl]-1-oxobutan-2-yl}carbamate trifluoroacetic acid salt] | – | – | 1950 pM | 128 pM | – |
